Reference: the supplement of paper PMC10307832

Experiments:
Experiment in all cases: relative viability (nuclei count vs DMSO), 5 days (fraction); higher = more cells survive
[1] = compound: O=C(Nc1c[nH]nc1-c1nc2ccc(CN3CCOCC3)cc2[nH]1)NC1CC1 [AT9283] + Cc1nc(NC(=O)N2CCC[C@H]2C(N)=O)sc1-c1ccnc(C(C)(C)C(F)(F)F)c1 [Alpelisib] (partner 2 µM)
Outline: (§1)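 Relative viability equals treated-well nuclei counts divided by vehicle-well nuclei counts. Counts came from 4× images of lung cancer cell lines grown in 1536-well plates for 5 days after pin-tool dosing on the day after seeding. Dosing used one drug alone or a fixed anchor-drug dose plus five library-drug doses (not always all listed) in √10 steps, and values are medians of duplicate plates.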

[2] = compound: C#Cc1cccc(Nc2ncnc3cc(OCCOC)c(OCCOC)cc23)c1 [Erlotinib] + CC(=O)c1c(C)c2cnc(Nc3ccc(N4CCNCC4)cn3)nc2n(C2CCCC2)c1=O [Palbociclib] (partner 0.5 µM)
Outline: as §1

[3] = compound: O=C(Nc1c[nH]nc1-c1nc2ccc(CN3CCOCC3)cc2[nH]1)NC1CC1 [AT9283] + CC(=O)c1c(C)c2cnc(Nc3ccc(N4CCNCC4)cn3)nc2n(C2CCCC2)c1=O [Palbociclib] (partner 0.5 µM)
Outline: as §1

[4] = compound: C#Cc1cccc(Nc2ncnc3cc(OCCOC)c(OCCOC)cc23)c1 [Erlotinib] + NC(=O)Nc1cc(-c2cccc(F)c2)sc1C(=O)N[C@H]1CCCNC1 [AZD7762] (partner 0.2 µM)
Outline: as §1

[5] = compound: C#Cc1cccc(Nc2ncnc3cc(OCCOC)c(OCCOC)cc23)c1 [Erlotinib] + Cc1nc(NC(=O)N2CCC[C@H]2C(N)=O)sc1-c1ccnc(C(C)(C)C(F)(F)F)c1 [Alpelisib] (partner 2 µM)
Outline: as §1

Cell Line	relative viability ([1]; first compound 0.003 µM)	relative viability ([1]; first compound 0.03 µM)	relative viability ([1]; first compound 0.09487 µM)	relative viability ([1]; first compound 0.3 µM)	relative viability ([2]; first compound 0.02 µM)	relative viability ([2]; first compound 0.2 µM)	relative viability ([2]; first compound 0.6325 µM)	relative viability ([2]; first compound 2 µM)	relative viability ([3]; first compound 0.003 µM)	relative viability ([3]; first compound 0.03 µM)	relative viability ([3]; first compound 0.09487 µM)	relative viability ([3]; first compound 0.3 µM)	relative viability ([4]; first compound 0.02 µM)	relative viability ([4]; first compound 0.2 µM)	relative viability ([4]; first compound 0.6325 µM)	relative viability ([4]; first compound 2 µM)	relative viability ([5]; first compound 0.2 µM)	relative viability ([5]; first compound 0.6325 µM)	relative viability ([5]; first compound 2 µM)	relative viability ([5]; first compound 0.02 µM)
NCI-H1355	0.855	0.898	0.443	0.182	0.387	0.344	0.325	0.269	0.395	0.404	0.376	0.152	0.794	0.687	0.674	0.682	0.742	0.685	0.518	–
NCI-H358	0.901	0.171	0.163	0.152	0.132	0.146	0.109	0.108	0.191	0.0774	0.0806	0.0739	0.537	0.361	0.429	0.201	0.693	0.474	0.358	0.885
NCI-H1755	0.996	0.874	0.35	0.381	0.454	0.449	0.446	0.458	0.434	0.463	0.469	0.499	0.487	0.438	0.499	0.379	0.933	0.937	0.872	1.01
NCI-H647	1.11	0.355	0.128	0.124	0.417	0.307	0.562	0.316	0.395	0.363	0.126	0.131	0.465	0.439	0.508	0.431	1.18	–	1.02	0.955
BEN	0.969	0.987	0.23	0.245	0.497	0.442	0.507	0.483	0.458	0.456	0.412	0.356	0.554	0.824	0.843	–	1.01	1.26	–	1.08
ABC-1	0.957	0.238	0.269	0.355	–	0.585	0.489	–	0.664	0.381	0.295	0.325	0.789	–	0.647	0.507	1.2	1.01	0.92	1.09
EPLC-272H	0.872	0.831	0.954	0.2	0.337	0.307	0.278	0.279	0.306	0.355	0.276	0.241	0.205	0.209	0.21	0.202	0.979	0.818	0.679	1.01
HCC-15	0.874	0.598	0.134	0.135	0.727	0.672	0.751	0.71	0.65	0.681	0.187	0.164	1.34	1.25	1.31	1.07	0.844	0.913	0.77	0.897
NCI-H596	0.508	0.509	0.531	0.496	–	–	–	–	–	–	–	–	1.04	0.954	1.05	0.87	0.456	0.492	0.376	0.444
